Data as given in patent US12558430B2, “Dual amylin and calcitonin receptor agonists and uses thereof” (Eli Lilly and Company, priority 2020, dated 2026).
Like-named read-outs stand apart in the source and are kept apart here. Blank lines part the entries; values can stand above or below the compound they belong to. Starred links: 1 amine or outer side, 2 acyl side, 3 side chain; linkers in the order of their positions; H or OH if unused. Non-standard residues stand in square brackets, D forms with d. Residues, ends and D or L forms follow the SMILES beside them. Groups on a side chain read outwards from the residue. *: point of attachment. C20 diacid = O=C(O)CCCCCCCCCCCCCCCCCCC(=O)*; γGlu = O=C(O)[C@H](CCC(=O)[*:2])N[*:1]; AEEA = NCCOCCOCC(=O)O; Aib = CC(C)(N)C(=O)O

Tests used:
[1] = Rat pharmacokinetics, single subcutaneous dose; type: in vivo; conditions: male, Sprague Dawley, plasma, sc, 20 nmol/kg, single 20 nmol/kg SC
Description: (§1) Plasma concentration of Compound II is determined by a qualified Liquid Chromatography Mass Spectrometry (LC/MS) method at Q Squared Solutions BioSciences LLC, Ithaca, N.Y. Compound II and an analog as an internal standard are extracted from 100% species-specific plasma using protein precipitation followed by solid phase extraction. The intact mass of Compound II which includes peptide plus acyl chain is detected by a Q-Exactive Orbitrap™ mass spectrometer.
In a rat pharmacokinetic study, male Sprague Dawley rats are administered a single subcutaneous dose of 20 nmol/kg (0.084 mg/kg) of Compound II in Tris-mannitol buffer (pH 8.0) at a volume of 0.2 mL/kg. Blood is collected at 1-, 3-, 6-, 12-, 24-, 48-, 72-, 96-, 120-, and 144-hours post-dose for pharmacokinetic characterization.

[2] = test system: Primary human dendritic cells
human AMY1 receptor = human AMY1 receptor (Homo sapiens, UniProt O60894+P30988); assay: hAMY1 cAMP functional assay (HTRF); type: cell-based
Description: The AMY1 and CT receptors are GPCRs that are functionally coupled to Gαs proteins. Stimulation of these receptors results in an increased production of intracellular cAMP, which can be detected using standard in vitro technologies. Human AMY1 or CT receptors are stably expressed in human urinary bladder cells (UM-UC-3) cells under control of a pcDNA (CALCR) or pCMV piggybac (RAMP1) expression vector. AMY1 cells are cultured in MEM 1X (Corning) supplemented with 10% FBS, 1% antibiotic/antimycotic solution, 1 mM sodium pyruvate, 1X MEM NEAA, 1X GlutaMAX-I, 200 μg/mL hygromycin B, and 0.4 μg/mL puromycin. CT cells are cultured in the same medium except that it lacks the puromycin. Cultured cells are grown to 70% confluency, and then incubated overnight with fresh medium.
On the assay day, 10 μL of assay buffer (phenol red free MEM (Corning, cat #17-305-CV), 0.1% casein, 0.5 mM IBMX, 5 mM HEPES, pH 7.4) is dispensed into each well of white poly-D-lysine coated 384-well plates (Corning cat #354661). […]
The amount of intracellular cAMP is quantitated using HTRF technology (Homogeneous Time Resolved Fluorescence; Cisbio) as per vendor instructions. […] The HTRF signal is immediately detected using an Envision plate reader (Perkin-Elmer) to calculate the ratio of fluorescence at 665 to 620 nm. […]

human CT receptor = molecular target: T1, human CT receptor (Homo sapiens, UniProt P30988); assay: hCT cAMP functional assay (HTRF); type: cell-based
T1 sequence (P30988 25-474): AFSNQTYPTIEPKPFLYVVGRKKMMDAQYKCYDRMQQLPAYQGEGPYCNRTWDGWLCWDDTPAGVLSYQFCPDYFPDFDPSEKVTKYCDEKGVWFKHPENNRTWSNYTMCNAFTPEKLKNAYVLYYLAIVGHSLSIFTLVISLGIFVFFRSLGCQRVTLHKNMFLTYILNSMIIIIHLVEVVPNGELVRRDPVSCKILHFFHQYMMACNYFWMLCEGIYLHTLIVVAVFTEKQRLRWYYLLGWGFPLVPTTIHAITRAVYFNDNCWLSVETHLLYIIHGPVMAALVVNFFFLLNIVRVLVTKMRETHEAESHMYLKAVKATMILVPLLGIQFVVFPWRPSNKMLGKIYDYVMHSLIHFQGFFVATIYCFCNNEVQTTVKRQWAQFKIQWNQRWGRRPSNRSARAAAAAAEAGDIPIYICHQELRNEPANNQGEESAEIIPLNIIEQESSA

[3] = Monkey pharmacokinetics, single subcutaneous dose; type: in vivo; conditions: cynomolgus monkey, plasma, sc, 20 nmol/kg, single 20 nmol/kg SC
Description: as §1
In a monkey pharmacokinetics study, male and female Cynomolgus monkeys are administered a single subcutaneous dose of 20 nmol/kg (0.084 mg/kg) of Compound II in Tris-mannitol buffer (pH 8.0) at a volume of 0.2 mL/kg. Blood is collected predose and at 1, 3, 6, 12, 24, 48, 72, 96, 120, 144, 168, 240, 336, 408, 504 hours postdose for pharmacokinetic characterization.

DIO male Long Evans rats = assay: DIO rats: Compound II in combination with other incretin compounds; type: in vivo, rat; conditions: mean ± SEM; for Cumulative Food Intake: 14-day treatment period; for Body Weight Change: Day −1 to Day 14
Description: This study is conducted to investigate the effect of Compound II for diabetes and/or obesity conditions in DIO rats when administered in combination with other incretin compounds, including a GLP-1 agonist (Compound III), oxyntomodulin analog (Compound IV), and a triagonist of glucagon, GLP-1, and GIP (Compound V). Diet-induced obese (DIO) male Long Evans (Envigo) rats, maintained on a calorie rich diet since arrival at Lilly (TD95217; Teklad, Madison, Wis.), are used in the following studies. Animals are individually housed in a temperature-controlled (24° C.) facility with 12-hour light/dark cycle (lights on 2200) and free access to food (TD95217) and water.
The rats are randomized according to their body weight, so that each experimental group of animals would have similar body weight. The body weights range from 529 to 823 grams.
Each group contains five rats. Vehicle and Compound II (1 nmol/kg) are dissolved in vehicle (40 mM Tris-HCl pH8+0.02% PS80) and are administered by subcutaneous (SC) injection (1 mL/kg) to ad libitum fed DIO rats 30 to 90 minutes prior to the onset of the dark cycle every 3 days for 14 days. SC injections are made on Days 1, 4, 7, 10 and 13. Body weight and food intake are measured daily throughout the study. Absolute changes in body weight are calculated by subtracting the body weight of the same animal prior to the first injection of molecule.
At the end of the study, blood is collected to measure blood glucose and plasma insulin. Blood glucose is measured by AccuChek glucometers (Roche, Indianapolis, Ind.). Insulin is measured by ELISA (MSD, Rockville, Md.).
All data are presented as mean±SEM of 5 animals per group. Statistical analysis is performed using one-way ANOVA, followed by Tukey's multiple comparison test to compare treatment groups to vehicle group or each other. Significant differences are identified at p<0.05.

[4] = background statement; cited from earlier work

human AMY1 receptor, sequence (O60894 27-148, one chain of several): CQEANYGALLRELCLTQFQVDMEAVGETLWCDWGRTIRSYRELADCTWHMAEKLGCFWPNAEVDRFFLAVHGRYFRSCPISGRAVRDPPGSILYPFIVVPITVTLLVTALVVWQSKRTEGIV

AUC(0-inf) ([1]; Mean): 8.59 µM·h
CL/F ([1]; Mean): 2.33 mL/h/kg
Cmax ([1]; Mean): 90 nM
Tmax ([1]; Mean): 24 h
half-life ([1]; Mean): 58 h
AUC(0-inf) ([1]; animal R0001): 8.41 µM·h
CL/F ([1]; animal R0001): 2.38 mL/h/kg
Cmax ([1]; animal R0001): 88 nM
Tmax ([1]; animal R0001): 48 h
half-life ([1]; animal R0001): 47 h
AUC(0-inf) ([1]; animal R0002): 8.7 µM·h
CL/F ([1]; animal R0002): 2.3 mL/h/kg
Cmax ([1]; animal R0002): 81 nM
Tmax ([1]; animal R0002): 12 h
half-life ([1]; animal R0002): 60 h
AUC(0-inf) ([1]; animal R0003): 8.65 µM·h
CL/F ([1]; animal R0003): 2.31 mL/h/kg
Cmax ([1]; animal R0003): 99 nM
Tmax ([1]; animal R0003): 12 h
half-life ([1]; animal R0003): 67 h
# of clusters [2]: 0
% Donors (displaying non-germline residues) [2]: 0%
immunogenicity risk (MAPPs) [2]: low level of immunogenicity risk
% Positive Donors (CD4+ T cells): 12.5%
CDI Range High (CD4+ T cells): 19.7
CDI Range Low (CD4+ T cells): 0.7
Median CDI (All donors) (CD4+ T cells): 1.0
Median CDI (Positive Donors) (CD4+ T cells): 19.7
Number of donors (positive/tested) (CD4+ T cells): 1/8
EC50 (human AMY1 receptor): 0.0494 ± 0.00514 nM
EC50 (human CT receptor): 0.0409 ± 0.0147 nM
AUC(0-inf) ([3]; both sexes, Mean): 47.5 µM·h
CL/F ([3]; both sexes, Mean): 0.42 mL/h/kg
Cmax ([3]; both sexes, Mean): 168 nM
Tmax ([3]; both sexes, Mean): 42 h
half-life ([3]; both sexes, Mean): 178 h
AUC(0-inf) ([3]; animal P0001): 50.4 µM·h
CL/F ([3]; animal P0001): 0.4 mL/h/kg
Cmax ([3]; animal P0001): 198 nM
Tmax ([3]; animal P0001): 12 h
half-life ([3]; animal P0001): 185 h
AUC(0-inf) ([3]; animal P0101): 44.7 µM·h
CL/F ([3]; animal P0101): 0.45 mL/h/kg
Cmax ([3]; animal P0101): 138 nM
Tmax ([3]; animal P0101): 72 h
half-life ([3]; animal P0101): 170 h
Compound: CC(=O)N[C@@H](C)C(=O)N[C@@H](CO)C(=O)N[C@@H](Cc1c[nH]cn1)C(=O)N[C@@H](CC(C)C)C(=O)N[C@@H](CO)C(=O)N[C@H](C(=O)N[C@@H](C)C(=O)N[C@H](C(=O)N[C@@H](CC(C)C)C(=O)NCC(=O)N[C@@H](CCCCNC(=O)COCCOCCNC(=O)COCCOCCNC(=O)CC[C@H](NC(=O)CCCCCCCCCCCCCCCCCCC(=O)O)C(=O)O)C(=O)N[C@@H](CC(C)C)C(=O)N[C@@H](CO)C(=O)NC(C)(C)C(=O)N[C@@H](CCC(=O)O)C(=O)N[C@@H](CC(C)C)C(=O)N[C@@H](Cc1c[nH]cn1)C(=O)N[C@@H](CCCCN)C(=O)N[C@@H](CC(C)C)C(=O)N[C@@H](CCC(=O)O)C(=O)N[C@@H](CC(=O)O)C(=O)N[C@@H](Cc1ccc(O)cc1)C(=O)N1CCC[C@H]1C(=O)N[C@@H](CCCNC(=N)N)C(=O)N[C@H](C(=O)N[C@@H](CC(=O)O)C(=O)N[C@H](C(=O)NCC(=O)N[C@@H](C)C(=O)N[C@@H](CCC(=O)O)C(=O)N[C@@H](CO)C(=O)N1CCC[C@H]1C(N)=O)C(C)C)[C@@H](C)O)C(C)C)[C@@H](C)O [Compound II] (Ac-ASHLSTAVLGK([AEEA-AEEA-γGlu-C20 diacid])LS[Aib]ELHKLEDYPRTDVGAESP-NH2)
immunogenicity risk (T cell proliferation) (CD4+ T cells): low level of immunogenicity risk

EC50 (human AMY1 receptor): 0.0493 ± 0.00804 nM
EC50 (human CT receptor): 0.0317 ± 0.0058 nM
Compound: CC(=O)N[C@@H](C)C(=O)N[C@@H](CO)C(=O)N[C@@H](Cc1c[nH]cn1)C(=O)N[C@@H](CC(C)C)C(=O)N[C@@H](CO)C(=O)N[C@H](C(=O)N[C@@H](C)C(=O)N[C@H](C(=O)N[C@@H](CC(C)C)C(=O)NCC(=O)N[C@@H](CCCCN)C(=O)N[C@@H](CC(C)C)C(=O)N[C@@H](CO)C(=O)NC(C)(C)C(=O)N[C@@H](CCC(=O)O)C(=O)N[C@@H](CC(C)C)C(=O)N[C@@H](Cc1c[nH]cn1)C(=O)N[C@@H](CCCCN)C(=O)N[C@@H](CC(C)C)C(=O)N[C@@H](CCC(=O)O)C(=O)N[C@@H](CC(=O)O)C(=O)N[C@@H](Cc1ccc(O)cc1)C(=O)N1CCC[C@H]1C(=O)N[C@@H](CCCNC(=N)N)C(=O)N[C@H](C(=O)N[C@@H](CC(=O)O)C(=O)N[C@H](C(=O)NCC(=O)N[C@@H](C)C(=O)N[C@@H](CCC(=O)O)C(=O)N[C@@H](CO)C(=O)N1CCC[C@H]1C(N)=O)C(C)C)[C@@H](C)O)C(C)C)[C@@H](C)O [Compound I] (Ac-ASHLSTAVLGKLS[Aib]ELHKLEDYPRTDVGAESP-NH2)

Compound: H-Aib-QGTFTSDYSKYLDEKKAK((2-[2-(2-Amino-ethoxy)-ethoxy]-acetyl)2-(γGlu)-CO-(CH2)18-CO2H)EFVEWLLEGGPSSG-NH2 (H-H[Aib]QGTFTSDYSKYLDEKKAK([AEEA-AEEA-γGlu-C20 diacid])EFVEWLLEGGPSSG-NH2) [Compound IV, oxyntomodulin analog]
Cumulative Food Intake (DIO male Long Evans rats; 10 nmol/kg SC every three days): 165.86 ± 7.45 g
Body Weight Change (DIO male Long Evans rats; 10 nmol/kg SC every three days): -50.24 ± 6.36 g

Compound: Salmon calcitonin
half-life [4]: less than two hours

Compound: Y-Aib-QGTFTSDYSI-αMeL-LDKK((2-[2-(2-Amino-ethoxy)-ethoxy]-acetyl)-(γGlu)-CO-(CH2)18-CO2H)AQ-Aib-AFIEYLLEGGPSSGAPPPS-NH2 (YXQGTFTSDYSIXLDKKAQXAFIEYLLEGGPSSGAPPPS; Aib, αMeL; lipidated Lys; C-terminal amide; SITE 2 X at position 2 is Aib; SITE 13 X at position 13 is alpha-methyl-Leu; MOD_RES 17 The Lys at position 17 is chemically modified by conjugation of the epsilon amino group of the Lys sidechain with 2-[2-(2-Amino-ethoxy)-ethoxy]-acetyl)-(gamma-Glu)-CO-(CH2)18-CO2H; SITE 20 X at position 20 is Aib; MOD_RES 39 C-terminus is amidated) [Compound V, triagonist of glucagon, GLP-1, and GIP]
Cumulative Food Intake (DIO male Long Evans rats; 3 nmol/kg SC every three days): 157.50 ± 10.63 g
Body Weight Change (DIO male Long Evans rats; 3 nmol/kg SC every three days): -43.28 ± 2.54 g
